Test results as given in patent US9708318B2, “Bicyclic heterocycles as FGFR4 inhibitors” (Incyte Corporation, priority 2015, dated 2017).
Where two headings read alike, the source gives them in different places.

How the values were obtained:
FGFR2 = FGFR2 (Homo sapiens (Human), UniProt P21802); experiment: FGFR Enzymatic Assay (FRET peptide phosphorylation), FGFR2; type: biochemical; details: pre-incubated for 4 hours
Experimental: (§1) The inhibitor potency of the exemplified compounds was measured in an enzyme assay that measures peptide phosphorylation using FRET measurements to detect product formation. Inhibitors were serially diluted in DMSO and a volume of 0.5 μL was transferred to the wells of a 384-well plate.
(§2) The enzymes were purchased from Millipore or Invitrogen.
(§3) GraphPad prism3 was used to analyze the data.

FGFR3 enzyme = FGFR3 enzyme (Homo sapiens (Human), UniProt P22607); experiment: FGFR Enzymatic Assay (FRET peptide phosphorylation), FGFR3; type: biochemical; details: for FGFR1/FGFR3 IC50 ratio / FGFR4/FGFR3 IC50 ratio: FGFR3 selectivity
Experimental: as §1, §3

FGFR4 = FGFR4 (Homo sapiens (Human), UniProt P22455); experiment: FGFR Enzymatic Assay (FRET peptide phosphorylation), FGFR4; type: biochemical; details: pre-incubated for 4 hours
Experimental: as §1, §2, §3

FGFR1 = FGFR1 (Homo sapiens (Human), UniProt P11362); experiment: FGFR Enzymatic Assay (FRET peptide phosphorylation), FGFR1; details: pre-incubated for 4 hours
[1] = pre-incubated for 4 hours, read-out: FGFR3 IC50

Chain of FGFR1 (P11362 22-822): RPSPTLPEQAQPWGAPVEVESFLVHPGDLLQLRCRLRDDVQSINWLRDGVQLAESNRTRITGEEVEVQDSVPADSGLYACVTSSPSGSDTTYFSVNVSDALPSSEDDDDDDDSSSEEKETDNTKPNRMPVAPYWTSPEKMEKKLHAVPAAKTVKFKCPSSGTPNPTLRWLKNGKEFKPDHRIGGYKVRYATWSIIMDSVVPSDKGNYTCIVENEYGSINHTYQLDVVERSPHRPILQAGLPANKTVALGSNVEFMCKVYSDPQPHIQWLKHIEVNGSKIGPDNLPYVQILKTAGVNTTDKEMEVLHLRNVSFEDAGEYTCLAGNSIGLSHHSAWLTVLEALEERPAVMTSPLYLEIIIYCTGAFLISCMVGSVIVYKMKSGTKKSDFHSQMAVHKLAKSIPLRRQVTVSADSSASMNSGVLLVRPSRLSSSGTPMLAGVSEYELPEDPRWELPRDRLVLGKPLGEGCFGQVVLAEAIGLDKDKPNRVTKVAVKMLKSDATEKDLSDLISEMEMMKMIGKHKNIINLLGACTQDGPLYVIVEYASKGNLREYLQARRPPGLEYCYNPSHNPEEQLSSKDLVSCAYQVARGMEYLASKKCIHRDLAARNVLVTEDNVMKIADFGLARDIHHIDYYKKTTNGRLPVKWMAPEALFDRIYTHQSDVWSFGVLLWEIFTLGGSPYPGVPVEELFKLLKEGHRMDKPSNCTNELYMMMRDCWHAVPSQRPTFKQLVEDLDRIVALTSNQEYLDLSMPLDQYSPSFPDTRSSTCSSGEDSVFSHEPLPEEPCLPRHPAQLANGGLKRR
Chain of FGFR2 (P21802 22-821): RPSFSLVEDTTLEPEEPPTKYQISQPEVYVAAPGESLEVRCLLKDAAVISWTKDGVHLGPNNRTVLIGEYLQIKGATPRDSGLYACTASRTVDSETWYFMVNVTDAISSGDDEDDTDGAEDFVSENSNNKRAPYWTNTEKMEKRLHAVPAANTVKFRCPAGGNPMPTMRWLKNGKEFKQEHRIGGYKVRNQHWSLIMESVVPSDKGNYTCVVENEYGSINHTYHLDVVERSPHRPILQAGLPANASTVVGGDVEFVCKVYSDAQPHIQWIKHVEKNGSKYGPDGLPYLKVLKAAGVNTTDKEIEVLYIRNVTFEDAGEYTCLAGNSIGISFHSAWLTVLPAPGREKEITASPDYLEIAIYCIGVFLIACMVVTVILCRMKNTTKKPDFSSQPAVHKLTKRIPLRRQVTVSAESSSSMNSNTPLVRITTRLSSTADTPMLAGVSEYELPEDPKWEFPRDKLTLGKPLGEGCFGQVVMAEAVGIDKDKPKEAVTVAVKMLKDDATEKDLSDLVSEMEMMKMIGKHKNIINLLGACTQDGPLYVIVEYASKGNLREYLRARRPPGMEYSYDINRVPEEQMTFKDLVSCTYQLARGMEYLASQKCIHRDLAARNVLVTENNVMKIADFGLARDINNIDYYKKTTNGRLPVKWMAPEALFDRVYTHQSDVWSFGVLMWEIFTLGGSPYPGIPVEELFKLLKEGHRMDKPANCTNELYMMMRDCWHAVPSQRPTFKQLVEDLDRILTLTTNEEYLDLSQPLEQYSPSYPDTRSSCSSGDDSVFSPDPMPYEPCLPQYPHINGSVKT
Chain of FGFR3 enzyme (P22607 23-806): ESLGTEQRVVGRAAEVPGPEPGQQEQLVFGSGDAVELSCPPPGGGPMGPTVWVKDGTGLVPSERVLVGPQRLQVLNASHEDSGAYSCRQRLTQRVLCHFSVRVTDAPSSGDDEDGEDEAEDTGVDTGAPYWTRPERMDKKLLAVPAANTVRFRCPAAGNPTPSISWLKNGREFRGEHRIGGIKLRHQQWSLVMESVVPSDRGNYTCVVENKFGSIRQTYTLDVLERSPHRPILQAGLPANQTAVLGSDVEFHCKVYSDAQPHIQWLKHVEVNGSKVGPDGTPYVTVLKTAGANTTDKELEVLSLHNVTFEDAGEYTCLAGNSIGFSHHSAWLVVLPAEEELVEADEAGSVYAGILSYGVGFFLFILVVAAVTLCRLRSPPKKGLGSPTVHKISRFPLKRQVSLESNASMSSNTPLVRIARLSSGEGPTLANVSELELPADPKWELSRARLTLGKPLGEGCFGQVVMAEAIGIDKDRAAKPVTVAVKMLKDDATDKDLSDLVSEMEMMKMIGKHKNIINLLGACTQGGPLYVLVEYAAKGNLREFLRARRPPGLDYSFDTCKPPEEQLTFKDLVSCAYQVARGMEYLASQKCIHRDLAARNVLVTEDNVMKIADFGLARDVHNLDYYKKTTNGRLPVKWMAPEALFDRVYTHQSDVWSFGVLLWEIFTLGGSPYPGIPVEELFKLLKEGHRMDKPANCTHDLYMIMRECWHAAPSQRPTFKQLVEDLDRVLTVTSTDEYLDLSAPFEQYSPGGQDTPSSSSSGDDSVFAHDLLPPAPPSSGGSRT
Chain of FGFR4 (P22455 22-802): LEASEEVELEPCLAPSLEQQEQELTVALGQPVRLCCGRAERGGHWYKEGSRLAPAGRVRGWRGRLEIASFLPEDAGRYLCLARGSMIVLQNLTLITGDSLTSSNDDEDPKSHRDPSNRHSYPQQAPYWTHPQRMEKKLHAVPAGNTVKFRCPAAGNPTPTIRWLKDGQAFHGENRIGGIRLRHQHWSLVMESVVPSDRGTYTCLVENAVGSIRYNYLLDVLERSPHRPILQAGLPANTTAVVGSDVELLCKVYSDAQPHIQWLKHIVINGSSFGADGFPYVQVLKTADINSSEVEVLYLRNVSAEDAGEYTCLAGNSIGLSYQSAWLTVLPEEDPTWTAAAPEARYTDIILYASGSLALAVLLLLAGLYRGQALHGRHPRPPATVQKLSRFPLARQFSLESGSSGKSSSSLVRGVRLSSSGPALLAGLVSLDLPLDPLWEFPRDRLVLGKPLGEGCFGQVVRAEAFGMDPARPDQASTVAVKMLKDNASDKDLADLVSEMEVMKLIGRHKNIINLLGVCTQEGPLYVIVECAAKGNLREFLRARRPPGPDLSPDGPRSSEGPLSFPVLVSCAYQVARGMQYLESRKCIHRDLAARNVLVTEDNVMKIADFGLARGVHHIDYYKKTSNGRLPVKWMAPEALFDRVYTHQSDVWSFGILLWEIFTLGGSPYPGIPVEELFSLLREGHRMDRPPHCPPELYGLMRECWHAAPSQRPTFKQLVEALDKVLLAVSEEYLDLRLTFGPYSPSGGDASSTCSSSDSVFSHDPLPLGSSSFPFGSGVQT

| SMILES | IC50 (FGFR2) | FGFR1/FGFR3 IC50 ratio (FGFR3 enzyme; pre-incubated for 4 hours) | FGFR4/FGFR3 IC50 ratio (FGFR3 enzyme; pre-incubated for 4 hours) | IC50 (FGFR3 enzyme; [1]) | IC50 (FGFR4) | IC50 (FGFR1; FGFR1 IC50 (nM)) | IC50 (FGFR3 enzyme) | IC50 (FGFR1; read-out: FGFR1 IC50) |
| --- | --- | --- | --- | --- | --- | --- | --- | --- |
| CCn1cnc(-c2cc3c(cn2)CN(c2c(F)c(OC)cc(OC)c2F)C(=O)C32CC2)c1 [Example 53, 2′-(2,6-difluoro-3,5-dimethoxyphenyl)-6′-(1-ethyl-1H-imidazol-4-yl)-1′H-spiro[cyclopropane-1,4′-[2,7]naphthyridin]-3′(2′H)-one] | < 10 nM | >5 | >5 | < 10 nM | 10 to 30 nM | 10 to 30 nM |  |  |
| COc1cc(OC)c(F)c(N2Cc3cnc(-c4cn(C)nc4C)cc3N(c3ncccn3)C2=O)c1F [Example 105, 3-(2,6-difluoro-3,5-dimethoxyphenyl)-7-(1,3-dimethyl-1H-pyrazol-4-yl)-1-(pyrimidin-2-yl)-3,4-dihydropyrido[4,3-d]pyrimidin-2(1H)-one] | 10 to 30 nM | >3 | >5 | 10 to 30 nM | 30 to 200 nM | 30 to 200 nM |  |  |
| COc1cc(OC)c(F)c(N2Cc3cnc(-c4cn(C)nc4C)cc3N(c3cc(F)cc(C#N)c3)C2=O)c1F [Example 78, 3-(3-(2,6-difluoro-3,5-dimethoxyphenyl)-7-(1,3-dimethyl-1H-pyrazol-4-yl)-2-oxo-3,4-dihydropyrido[4,3-d]pyrimidin-1(2H)-yl)-5-fluorobenzonitrile] | 10 to 30 nM | >5 | >3 | < 10 nM | 30 to 200 nM | 30 to 200 nM |  |  |
| COc1cccc(N2C(=O)N(c3c(F)c(OC)cc(OC)c3F)Cc3cnc(-c4cn(C)nc4C)cc32)c1 [Example 109, 3-(2,6-difluoro-3,5-dimethoxyphenyl)-7-(1,3-dimethyl-1H-pyrazol-4-yl)-1-(3-methoxyphenyl)-3,4-dihydropyrido[4,3-d]pyrimidin-2(1H)-one] | < 10 nM | >3 | >10 | < 10 nM | 30 to 200 nM | 10 to 30 nM |  |  |
| CNC(=O)c1ccc(-c2cc3c(cn2)CN(c2c(F)c(OC)cc(OC)c2F)C(=O)C32CC2)cn1 [Example 18, 5-(2′-(2,6-difluoro-3,5-dimethoxyphenyl)-3′-oxo-2′,3′-dihydro-1′H-spiro[cyclopropane-1,4′-[2,7]naphthyridine]-6′-yl)-N-methylpicolinamide] | < 10 nM | >5 |  | < 10 nM | 10 to 30 nM | 10 to 30 nM |  |  |
| COc1cc(OC)c(F)c(N2Cc3cnc(-c4cn(C)nc4C)cc3N(C3CCN(C(C)=O)CC3)C2=O)c1F [Example 43, 1-(1-acetylpiperidin-4-yl)-3-(2,6-difluoro-3,5-dimethoxyphenyl)-7-(1,3-dimethyl-1H-pyrazol-4-yl)-3,4-dihydropyrido[4,3-d]pyrimidin-2(1H)-one] | 30 to 200 nM | >10 | >5 |  | 30 to 200 nM |  | 10 to 30 nM | > 200 nM |
| COc1cc(OC)c(F)c(N2Cc3cnc(-c4cn(C)nc4C)cc3N(Cc3csc(C)n3)C2=O)c1F [Example 95, 3-(2,6-difluoro-3,5-dimethoxyphenyl)-7-(1,3-dimethyl-1H-pyrazol-4-yl)-1-((2-methylthiazol-4-yl)methyl)-3,4-dihydropyrido[4,3-d]pyrimidin-2(1H)-one] | < 10 nM | >5 | >10 | < 10 nM | 30 to 200 nM | 10 to 30 nM |  |  |
| COc1cc(OC)c(F)c(N2Cc3cnc(-c4cnn(C5CCN(C(C)=O)C5)c4)cc3C3(CC3)C2=O)c1F (centres unmarked) [Example 150, 6′-(1-(1-acetylpyrrolidin-3-yl)-1H-pyrazol-4-yl)-2′-(2,6-difluoro-3,5-dimethoxyphenyl)-1′H-spiro[cyclopropane-1,4′-[2,7]naphthyridin]-3′(2′H)-one] | < 10 nM | >5 | >5 | < 10 nM | < 10 nM |  |  | < 10 nM |
